Source: patent publication US20260130933A1, “PHARMACEUTICAL COMPOSITION FOR PREVENTION OR TREATMENT OF NEPHROPATHY AND/OR DIABETES MELLITUS, COMPRISING ENAVOGLIFLOZIN” (DAEWOONG PHARMACEUTICAL CO., LTD., priority 2022, published 2026)

Assay: Example 2: phase 3 trial, enavogliflozin 0.3 mg vs dapagliflozin 10 mg once a day for 24 weeks added to metformin in patients with type 2 diabetes (same efficacy, exploratory and safety endpoints)
Assay type: in vivo, human
Experimental: Subjects who met the inclusion/exclusion criteria were administered a placebo of the clinical trial drug under single-blind (subject blinding) conditions during a 2-week run-in period while continuing to receive metformin. […] The randomized subjects were administered two tablets of the clinical trial drug for each administration group once a day, and then visited the institution at weeks 6, 12, 18, and 24 during the 24-week administration period to conduct efficacy and safety evaluations.
• 1. Change in HbA1c at week 24 after administration of clinical trial drug compared to Visit 2 (randomization)
• 1. Change in HbA1c at each time point of weeks 6, 12, and 18 after administration of clinical trial drug compared to Visit 2 (randomization) • 2. Change in FPG at each time point of weeks 6, 12, 18, and 24 after administration of clinical trial drug compared to Visit 2 (randomization) • 3. Proportion of subjects achieving HbA1c<7% at each time point of weeks 6, 12, 18, and 24 after administration of clinical trial drug • 4. Proportion of subjects achieving HbA1c<6.5% at each time point of weeks 6, 12, 18, and 24 after administration of clinical trial drug • 5. Proportion of subjects achieving therapeutic response (HbA1c change (HbA1c at Visit 2-HbA1c at each evaluation time point)>0.5% or HbA1c<7% at each evaluation time point compared to Visit 2 (randomization)) at each time point of weeks 6, 12, 18 and 24 after administration of clinical trial drug
• 1. Change in fasting c-peptide at each time point of weeks 6, 12, 18, and 24 after administration of clinical trial drug compared to Visit 2 (randomization) • 2. Change in body weight at each time point of weeks 6, 12, 18, and 24 after administration of clinical trial drug compared to Visit 2 (randomization) • 3. Change in fasting lipid concentration (total cholesterol, LDL-C, HDL-C, and triglycerides) at each time point of weeks 6, 12, 18, and 24 after administration of clinical trial drug compared to Visit 2 (randomization) • 4. Changes in systolic or diastolic blood pressure at each time point of weeks 6, 12, 18, and 24 after administration of clinical trial drug compared to Visit 2 (randomization) • 5. Changes in β-cell function and insulin resistance measured by HOMA-β and HOMA-IR at each time point of weeks 6, 12, 18, and 24 after administration of clinical trial drug compared to Visit 2 (randomization) • 6. Changes in renal function-related indicators (UACR, UGCR) measured by UACR at each time point of weeks 6, 12, 18, and 24 after administration of clinical trial drug compared to Visit 2 (randomization) • 7. Changes in obesity-related indicators (adiponectin, leptin) at each time point of weeks 6, 12, 18, and 24 after administration of clinical trial drug compared to Visit 2 (randomization)

[1] = Week 12, mPPS1, enavogliflozin minus dapagliflozin
[2] = Week 12, mPPS2, enavogliflozin minus dapagliflozin
[3] = Week 18, PPS, enavogliflozin minus dapagliflozin

OC[C@H]1O[C@@H](c2cc(Cc3ccc(C4CC4)cc3)c(Cl)c3c2CCO3)[C@H](O)[C@@H](O)[C@@H]1O [Enavogliflozin, (2S,3R,4R,5S,6R)-2-(7-chloro-6 (4-cyclopropylbenzyl)-2,3-dihydrobenzofuran-4-yl)-6-(hydroxymethyl)tetrahydro-2H-pyran-3,4,5-triol]
HDL-C, Mean (SD) (Week 12, mPPS1): 53.08(10.89) mg/dL
HDL-C, Median (Week 12, mPPS1): 52.50 mg/dL
LDL-C change from baseline, ANCOVA LS mean (SE) (Week 12, mPPS1): 1.86(1.68) mg/dL
LDL-C change from baseline, Mean (SD) (Week 12, mPPS1): 0.78(16.26) mg/dL
LDL-C change from baseline, Median (Week 12, mPPS1): 1.00 mg/dL
LDL-C, Mean (SD) (Week 12, mPPS1): 87.58(30.26) mg/dL
LDL-C, Median (Week 12, mPPS1): 79.00 mg/dL
Triglycerides change from baseline, ANCOVA LS mean (SE) (Week 12, mPPS1): −7.53(4.80) mg/dL
Triglycerides change from baseline, Mean (SD) (Week 12, mPPS1): −5.00(57.85) mg/dL
Triglycerides change from baseline, Median (Week 12, mPPS1): 3.00 mg/dL
Triglycerides, Mean (SD) (Week 12, mPPS1): 116.23(59.46) mg/dL
Triglycerides, Median (Week 12, mPPS1): 100.00 mg/dL
HDL-C change from baseline, LS mean difference [1]: 0.06 mg/dL
LDL-C change from baseline, LS mean difference [1]: 1.30 mg/dL
triglycerides change from baseline, LS mean difference [1]: 2.57 mg/dL
Diastolic blood pressure change from baseline, ANCOVA LS mean (SE) (Week 12, mPPS2): −4.19 mmHg
Diastolic blood pressure change from baseline, Mean (SD) (Week 12, mPPS2): −4.33 mmHg
Diastolic blood pressure change from baseline, Median (Week 12, mPPS2): −4.00 mmHg
Diastolic blood pressure, Mean (SD) (Week 12, mPPS2): 72.66 mmHg
Diastolic blood pressure, Median (Week 12, mPPS2): 72.00 mmHg
Systolic blood pressure change from baseline, ANCOVA LS mean (SE) (Week 12, mPPS2): −5.86(1.04) mmHg
Systolic blood pressure change from baseline, Mean (SD) (Week 12, mPPS2): −6.42(9.73) mmHg
Systolic blood pressure change from baseline, Median (Week 12, mPPS2): −6.00 mmHg
Systolic blood pressure, Mean (SD) (Week 12, mPPS2): 123.29(13.73) mmHg
Systolic blood pressure, Median (Week 12, mPPS2): 123.00 mmHg
diastolic blood pressure change from baseline, LS mean difference [2]: 0.16 mmHg
systolic blood pressure change from baseline, LS mean difference [2]: 0.26 mmHg
Adiponectin change from baseline, ANCOVA LS mean (SE) (Week 18, PPS): 1.33 µg/mL
Adiponectin change from baseline, Mean (SD) (Week 18, PPS): 1.26 µg/mL
Adiponectin change from baseline, Median (Week 18, PPS): 1.14 µg/mL
Adiponectin, Mean (SD) (Week 18, PPS): 8.3 µg/mL
Adiponectin, Median (Week 18, PPS): 7.33 µg/mL
HOMA-IR change from baseline, ANCOVA LS mean (SE) (Week 18, PPS): −1.79
HOMA-IR change from baseline, Mean (SD) (Week 18, PPS): −1.58
HOMA-IR change from baseline, Median (Week 18, PPS): −0.94
HOMA-IR, Mean (SD) (Week 18, PPS): 1.86
HOMA-IR, Median (Week 18, PPS): 1.51
HOMA-β change from baseline, ANCOVA LS mean (SE) (Week 18, PPS): 10.97
HOMA-β change from baseline, Mean (SD) (Week 18, PPS): 10.63
HOMA-β change from baseline, Median (Week 18, PPS): 5.75
HOMA-β, Mean (SD) (Week 18, PPS): 56.39
HOMA-β, Median (Week 18, PPS): 40.45
Leptin change from baseline, ANCOVA LS mean (SE) (Week 18, PPS): -2.49 ng/mL
Leptin change from baseline, Mean (SD) (Week 18, PPS): -2.50 ng/mL
Leptin change from baseline, Median (Week 18, PPS): -1.32 ng/mL
Leptin, Mean (SD) (Week 18, PPS): 9.71 ng/mL
Leptin, Median (Week 18, PPS): 7.22 ng/mL
UACR change from baseline, ANCOVA LS mean (SE) (Week 18, PPS): -23.05 g/kg
UACR change from baseline, Mean (SD) (Week 18, PPS): -17480 mg/kg
UACR change from baseline, Median (Week 18, PPS): -0.70 g/kg
UACR, Mean (SD) (Week 18, PPS): 20320 mg/kg
UACR, Median (Week 18, PPS): 9.80 g/kg
UGCR change from baseline, ANCOVA LS mean (SE) (Week 18, PPS): 60.97 mg/mg
UGCR change from baseline, Mean (SD) (Week 18, PPS): 59.41 mg/mg
UGCR change from baseline, Median (Week 18, PPS): 57.54 mg/mg
UGCR, Mean (SD) (Week 18, PPS): 60.98 mg/mg
UGCR, Median (Week 18, PPS): 58.42 mg/mg
HOMA-IR change from baseline, LS mean difference [3]: −0.32
HOMA-β change from baseline, LS mean difference [3]: −2.53
UACR change from baseline, LS mean difference [3]: -10.10 g/kg
UGCR change from baseline, LS mean difference [3]: 18.25 mg/mg
leptin change from baseline, LS mean difference [3]: -1.26 ng/mL
HDL-C change from baseline, ANCOVA LS mean (SE) (Week 18, mPPS1): 2.46(0.66) mg/dL
HDL-C change from baseline, Mean (SD) (Week 18, mPPS1): 1.89(6.20) mg/dL
HDL-C change from baseline, Median (Week 18, mPPS1): 2.50 mg/dL
HDL-C, Mean (SD) (Week 18, mPPS1): 53.49(11.50) mg/dL
HDL-C, Median (Week 18, mPPS1): 52.50 mg/dL
LDL-C change from baseline, ANCOVA LS mean (SE) (Week 18, mPPS1): 1.42(1.86) mg/dL
LDL-C change from baseline, Mean (SD) (Week 18, mPPS1): 0.50(14.20) mg/dL
LDL-C change from baseline, Median (Week 18, mPPS1): -1.00 mg/dL
